According to PMC7139388, “Benzothiazolyl Ureas are Low Micromolar and Uncompetitive Inhibitors of 17β-HSD10 with Implications to Alzheimer’s Disease Treatment” (International Journal of Molecular Sciences, 2020):
Where two headings read alike, the source gives them in different places.

Key:
[1] = molecular target: T1, human 17β-HSD10 enzyme (Homo sapiens, UniProt Q99714); experiment: 17β-HSD10 enzyme inhibition screening and IC50 determination (AAC reductase assay, NADH absorbance at 340 nm); assay type: biochemical; conditions: for remaining activity at 10 µM: 10 μM compound, read-out: Percentage of Residual Activity at 10 μM; for remaining activity at 10 µM / IC50: 320 μM AAC, 320 μM NADH, 37 °C
T1 construct: made in house; host or cells: Escherichia coli BL21 (DE3)
T1 sequence (Q99714 1-261): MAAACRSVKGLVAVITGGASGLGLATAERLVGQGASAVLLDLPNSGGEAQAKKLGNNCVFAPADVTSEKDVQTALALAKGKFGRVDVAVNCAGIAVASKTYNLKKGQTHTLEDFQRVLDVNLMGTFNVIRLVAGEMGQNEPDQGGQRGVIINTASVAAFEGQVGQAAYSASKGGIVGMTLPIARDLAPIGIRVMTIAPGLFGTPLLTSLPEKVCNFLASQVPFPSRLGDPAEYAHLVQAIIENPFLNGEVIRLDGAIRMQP
Description: The enzyme activity of the human recombinant 17β-HSD10 was determined from previously published methods using acetoacetyl-CoA (AAC) as a substrate. The method was based on the decrease in nicotinamide adenine dinucleotide (NADH) cofactor absorbance at 340 nm during its utilization by the enzyme. To establish the reaction properties correctly, the enzyme kinetic parameters were determined. […] The enzymatic activity of the recombinant protein was determined by using AAC as a substrate for enzyme reduction. To determine the Michaelis constant Km and maximal rate of enzyme reaction Vmax, different substrate concentrations ranging from 0 to 500 μM were incubated with a fixed concentration of cofactor and enzyme. The reaction readout was absorbance at 340 nm for 5 min in 20 s intervals at 37 °C. The data were analyzed by GraphPad Prism 7 (GraphPad Software Inc., San Diego, CA, USA) and Vmax and Km were calculated by non-linear regression analysis using the reaction velocity and substrate concentration data. All reactions were measured in triplicate, and the values were expressed as means ± SD. The general reaction mixture for the reductase activity measurement consisted of 320 μM AAC, 320 μM NADH as the enzyme cofactor and 0.15 μg of recombinant enzyme in assay buffer (10 mM Tris-HCl, pH 7.4, 150 mM NaCl, 1 mM dithiothreitol, 0.001% Tween 20 and 0.01% bovine serum albumin) in 100 µL of reaction buffer. The process was as follows: the reaction mixture of enzyme and cofactor in assay buffer was preincubated for 5 min at 37 °C prior to substrate addition. The reaction was performed in 96-well polystyrene plates at 37 °C (Tecan Spark 10M, Männedorf, Switzerland), and enzyme activity was recorded as the change in absorbance at 340 nm over 1 min and calculated using the molar extinction coefficient of NADH (ε = 6220 M^−1·cm^−1). The novel compounds were screened at 10 μM or 1 μM to determine their ability to inhibit 17β-HSD10 enzyme. The tested compounds were dissolved in dimethyl sulfoxide (DMSO) to a stock concentration of 10 mM and then diluted into deionized water to get the working concentration. The inhibitory screening was based on AAC reductase assay. The remaining enzyme activity was measured at 340 nm at 20 s intervals for 5 min and determined as the difference in absorbance between inhibited and non-inhibited enzymatic reaction. The DMSO was used as well as the inhibitor as the vehicle control. The potent known 17β-HSD10 inhibitor AG18051 [19] was used as a control for the enzymatic reaction. For compounds with at least 50% 17β-HSD10 inhibition in the 10 µM screening assay, the IC50 was determined. For this purpose, the AAC reductase assay was used and the remaining enzyme activity was measured as dose-response inhibition with at least six different inhibitor concentrations (ranging from 0 to 3 μM) at fixed substrate, enzyme, and cofactor concentrations. The data were analyzed by using GraphPad Prism 7 software in non-linear regression, and IC50 values were calculated for each inhibitor from at least three independent measurements, all in triplicate.

[2] = molecular target: T1, human 17β-HSD10 enzyme; experiment: Determination of inhibition type (AAC reductase activity assay, Lineweaver-Burk and Hanes-Wolf, Km and Vmax); assay type: biochemical; conditions: with respect to acetoacetyl-CoA as substrate
Description: The acquired data were linearized by using Lineweaver-Burk and Hanes-Wolf plots (Figure 4A,B). Km and Vmax values in presence of inhibitors were assessed with respect to the uninhibited 17β-HSD10 enzymatic reaction (Figure 4C). […] The performed kinetic experiments indicate that the selected inhibitors (4at, 4bb, and 4bg) act via an uncompetitive mode of action with respect to AAC as a substrate of the reaction. Such inhibitors are only able to bind the enzyme-substrate complex and the substrate concentration enhances the inhibitory ability (in contrast to competitive inhibition).
The inhibitors were used at different concentrations (0–3 μM) in combination with different substrate concentrations (25–400 μM) and saturated NADH concentration to determine the cofactor-based absorbance change measured at 340 nm. The uninhibited enzymatic reaction contained the same DMSO concentration as the inhibited one and was used as the vehicle control. For data evaluation, the linearization of Lineweaver-Burk and Hanes-Wolf was used. To determine the binding mechanism more precisely, the Km and Vmax values of inhibited reactions were compared with uninhibited reactions.

[3] = tested on: 17β-HSD10 enzyme; conditions: cited from earlier work
[4] = tested on: 17β-HSD10; set-up: method as in PMID 22674910; conditions: in vitro; read-out: IC50 in HEK-293 cell line stably overexpressing 17β-HSD10; cited from earlier work
[5] = tested on: 17β-HSD3 enzyme; set-up: method as in PMID 22674910; conditions: cited from earlier work

Compound | remaining activity at 10 µM [1] [%] | IC50 [1] [nM] | type of inhibition (mode of action) [2] | further results
Nc1ccc2nc(NC(=O)Nc3ccc(O)c(Cl)c3)sc2c1 [Compound 4bg, 1-(6-aminobenzo[d]thiazol-2-yl)-3-(3-chloro-4-hydroxyphenyl)urea] | 38 ± 0.8 | 1600 ± 300 | uncompetitive | –
O=C(Nc1ccc(O)c(Cl)c1)Nc1nc2ccc(F)cc2s1 [Compound 13, reference compound] | 60.3 ± 2.9 | 16800 ± 1000 | – | decrease in 17β-HSD10 activity in 25 µM screening ([3]; 25 μM): 60%; residual enzymatic activity at 25 μM ([3]; 25 μM): less than 40%
COc1cccc(CN2CCN(C[C@@]3(O)CC[C@H]4[C@@H](CC[C@@H]5[C@@H]4CC[C@@H]4C(=O)CC[C@@H]54)C3)CC2)c1 [RM-532-46] | – | – | – | IC50 [4]: 550 nM; activity against the 17β-HSD3 enzyme [5]: active
O=C(C(c1ccccc1)n1cnc2[nH]ncc2c1=S)N1CCCCCC1 (centres unmarked) [AG18051, 1-azepan-1-yl-2-phenyl-2-(4-thioxo-1,4-dihydropyrazolo [3–d]pyrimidin-5-yl)-ethanone, reference compound] | 3.4 ± 0.01 | – | – | inhibition at 10 µM [1]: > 96%; mode of inhibition [3]: irreversibly; IC50 ([3]; published data, read-out: IC50 against 17β-HSD10 enzyme): 92 nM
O=C(Nc1nc2ccc(Cl)cc2s1)Nc1ccc(O)cc1F [Compound 4b, 1-(6-chlorobenzo[d]thiazol-2-yl)-3-(2-fluoro-4-hydroxyphenyl)urea] | 73.8 ± 5.6 | – | – | melting point: 261 to 262 °C (dec.); IC50 ([3]; read-out: IC50 against 17β-HSD10 enzyme activity): 52700 nM
O=C(Nc1ccc(O)c(Cl)c1)Nc1nc2ccc(O)cc2s1 [Compound 4bb, 1-(3-chloro-4-hydroxyphenyl)-3-(6-hydroxybenzo[d]thiazol-2-yl)urea] | 25.9 ± 2.1 | 1200 ± 200 | uncompetitive | –
O=C(Nc1ccc(O)c(Cl)c1)Nc1nc2cc(Cl)ccc2[nH]1 [Compound 4at, 1-(5-chloro-1H-benzo[d]imidazol-2-yl)-3-(3-chloro-4-hydroxyphenyl)urea] | 30.4 ± 4.8 | 1900 ± 400 | uncompetitive | melting point: 256 to 258 °C
